Converted amounts (≈) assume the structure as drawn.
What was measured:
[1] = DPPH radical scavenging (antioxidant activity); type: biochemical; settings: DPPH 100 μM in absolute ethyl alcohol, 20 minutes, absorbance 570 nm; mean ± SEM (n = 10 to 12)
Method: After 20 minutes, the absorbance (optical density) of the mixture was measured at a wavelength of 570 nm and compared to that of the control sample. The degree of scavenging of the DPPH radical by each test sample was calculated by comparing the absorbance of the test sample and the diluent control reaction mixture. The results are shown in Table 2 below, a lower IC value indicating a better antioxidant effect on the DPPH radical.

[2] = Polymerization of methylmethacrylate (MMA) to polymethylmethacrylate (PMMA) by Fenton's reagent; settings: for Effect on polymerization of MMA→PMMA: low concentrations of ascorbic acid (1.0 mg in b63)
Method: Thus, the pro-oxidant effect of a low concentration of AA could be systemically quite dangerous due to distinct involvement of OH radicals. […] N2 was passed through the mixture for 30 min. followed by H2O2. The onset of polymerization (the induction period in minutes) was noted. Polymerization was completed in about 24 hours at 35±2° C. The resulting precipitate was collected, washed and dried at 50° C. until a constant weight was obtained (See Table 3).

PBR 322 plasmid DNA = experiment: Prevention of DNA strand scission by hydroxyl radical from Cu(en)2-hydrogen peroxide; type: biochemical
Method: The DNA strand scission was investigated by a method published by T. Ozawa, et al [Biochem. Mol. Biol. Int. 31, 455-46, 1993]. The method consists of addition of hydrogen peroxide (30%, final concentration 25 mM) to a mixture of Cu(en)2 (final concentration 0.25 mM) and 0.5 mcg of PBR 322 plasmid DNA solution (Takara Co., Japan). The hydroxyl radical, generated from Cu(en)2-hydrogen peroxide reaction, caused DNA strand scission.

[3] = 3 g sample added (so in the source)
[4] = DNA + OH radical + test material

Q: With `CC(=O)Oc1c(C)c(C)c2c(c1C)CCC(C)(CCC[C@H](C)CCC[C@H](C)CCCC(C)C)O2` (stereo partly drawn) [α-Tocopheryl acetate (TA), α-Tocopheryl acetate] as the compound, how does the “IC50 (DPPH radical scavenging)” value [1] read?
A: 50.55 ± 7.03 µg/mL

Q: For `O=C1O[C@H]([C@@H](O)CO)C(O)=C1O` [AA, Ascorbic acid], which “IC50 (DPPH radical scavenging)” value [1] is on record?
A: 18.41 ± 3.88 µg/mL (≈ 105 µM)

Q: What about the “% Conversion of MMA → PMMA” value ([2]; 1 mg sample added) of the same compound?
A: 78.7 ↑ %

Q: What about the “Induction Time” value ([2]; 1 mg sample added) of the same compound?
A: 0 min

Q: And the “Yield of PMMA” value ([2]; 1 mg sample added)?
A: 772 mg

Q: What about the “% Conversion of MMA → PMMA” value ([2]; 2 mg sample added) of the same compound?
A: 69.8 ↑ %

Q: What about the “Induction Time” value ([2]; 2 mg sample added) of the same compound?
A: 0 min

Q: What about the “Yield of PMMA” value ([2]; 2 mg sample added) of the same compound?
A: 692 mg

Q: And the “% Conversion of MMA → PMMA” value ([2]; 4 mg sample added)?
A: 44.0%

Q: What about the “Induction Time” value ([2]; 4 mg sample added) of the same compound?
A: 0 min

Q: And the “Yield of PMMA” value ([2]; 4 mg sample added)?
A: 432 mg

Q: What about the “% Conversion of MMA → PMMA” value ([2]; 5 mg sample added) of the same compound?
A: 23.1%

Q: And the “Induction Time” value ([2]; 5 mg sample added)?
A: 0 min

Q: And the “Yield of PMMA” value ([2]; 5 mg sample added)?
A: 227 mg

Q: What about the “% Conversion of MMA → PMMA” value ([2]; 10 mg sample added) of the same compound?
A: 8.4%

Q: What about the “Induction Time” value ([2]; 10 mg sample added) of the same compound?
A: 0 min

Q: And the “Yield of PMMA” value ([2]; 10 mg sample added)?
A: 83 mg

Q: And the “% Conversion of MMA → PMMA” value [2, 3]?
A: 68.2 ↑ %

Q: What about the “Induction Time” value [2, 3] of the same compound?
A: 0 min

Q: What about the “Yield of PMMA” value [2, 3] of the same compound?
A: 670 mg

Q: What about the “Effect on polymerization of MMA→PMMA” value [2] of the same compound?
A: significant augmentation of polymerization

Q: What about the “Effect on polymerization of MMA→PMMA” value ([2]; listed as ascorbic acid) of the same compound?
A: augmented polymerization

Q: What about the “Linear form of DNA (LIN, Produced after breakage)” value (PBR 322 plasmid DNA; [4]) of the same compound?
A: 60%

Q: And the “Open circular form Of DNA (OC)” value (PBR 322 plasmid DNA; [4])?
A: 40%

Q: What about the “Effect on DNA strand-scission by hydroxyl radicals compared to the control value” (PBR 322 plasmid DNA; physiological pH, Cu(en)2 and hydrogen peroxide) of the same compound?
A: accelerated

— patent US6362167B1, “Method of blocking free radical processes which result in mediated pathology without deleterious pro-oxidant side reactions” (Natreon Inc., priority 1999, dated 2002)
